Laboratory results reported in patent US20080269060A1, “Herbicidal Formulation” (priority 2004, published 2008).
In brackets after ≈: the same amount, converted by molar mass. Like-named read-outs stand apart in the source and are kept apart here.

Experiments:
[1] = Storage stability of 1% mesotrione / isoxaflutole salt mixtures, 8 weeks at +45° C. vs −18° C.; assay type: physicochemical; design: Start: unit not given here; details: for 45° C. / % decomposition: 8 weeks at 45° C.; for Start: held at −18° C. 8 weeks
Description: Millbase preparations of mesotrione and isoxaflutole were made using the following method:
The sample is placed in a round bottomed flask (˜140 mls) and mixed at 150 rpm for 15 minutes until homogeneous. An equal volume of glass beads is added to the flask (0.8-1.0 mm diameter) and the sample is milled at 650 rpm of 60 minutes. The particle size was checked. Further milling of the sample continued (60 minutes for mesotrione and 150 minutes for isoxaflutole). The particle size was checked again and all particles met the specification of 5 microns (D(4,3) volume weighted mean diameter).
The samples were extracted under vacuum through a sieve to disengage the beads from the millbases. The two millbases shown below were checked for AI content and used in the preparation of the salt mixtures. The final mixtures (see below) were then placed on storage at −18° C. (controlled initial sample) and +45° C. for 8 weeks. Analysis was then carried out using validated methods. The salts used were: glyphosate potassium aqueous solution; diquat dibromide aqueous solution; paraquat dichloride aqueous solution.
Analytical Results: storage time was 8 weeks; sample denoted as “start” was held at −18° C. for the same period.

[2] = Amount of mesotrione in solution by UV-visible spectrophotometry in aqueous electrolyte; assay type: physicochemical; details: pH approximately 5
Description: Eight aqueous millbase formulations were made comprising mesotrione millbase (12 g/L or 10,000 approximately) and varying amounts of glyphosate-potassium, ammonium sulphate, and sodium chloride. All samples were held at a pH of approximately 5 by using phosphoric acid for adjustment. The amount of mesotrione in solution was determined using UV-visible spectrophotometry, since the aqueous solubility of mesotrione is related to the expected rate of decomposition of this active ingredient in such systems.

[3] = water, cited from earlier work
[4] = 1% active and diquat pH ~4, Salt % 7.50 (as diquat anion)
[5] = 1% active and diquat pH ~4, Salt % 15.00 (as diquat anion)
[6] = 1% active and diquat pH ~4, Salt % 22.50 (as diquat anion)
[7] = 1% active and paraquat pH ~4, Salt % 10.00 (as paraquat anion)
[8] = 1% active and paraquat pH ~4, Salt % 20.00 (as paraquat anion)
[9] = 1% active and paraquat pH ~4, Salt % 30.00 (as paraquat anion)
[10] = 1% active, no salt, adjusted pH 2
[11] = 1% isoxaflutole unadjusted pH 7.0, no salt
[12] = 1% active and glyphosate pH ~5, Salt % 15.00 (as glyphosate acid equivalent)
[13] = 1% active and glyphosate pH ~5, Salt % 45.00 (as glyphosate acid equivalent)
[14] = 1% mesotrione not adjusted pH 5 (pH ~4.5), no salt

CS(=O)(=O)c1cc(C(F)(F)F)ccc1C(=O)c1cnoc1C1CC1 [Isoxaflutole, 5-cyclopropyl-4-(2-methylsulfonyl-4-trifluoromethyl)benzoylisoxazole]
45° C. [1, 4]: 0.94
% decomposition [1, 4]: 11.30%
Start [1, 4]: 1.06
45° C. [1, 5]: 0.94
% decomposition [1, 5]: 9.50%
Start [1, 5]: 1.04
45° C. [1, 6]: 0.87
% decomposition [1, 6]: 16.50%
Start [1, 6]: 1.04
45° C. [1, 7]: 0.99
% decomposition [1, 7]: 6.00%
Start [1, 7]: 1.05
45° C. [1, 8]: 0.90
% decomposition [1, 8]: 12.00%
Start [1, 8]: 1.02
45° C. [1, 9]: 0.80
% decomposition [1, 9]: 7.00%
Start [1, 9]: 0.86
45° C. [1, 10]: 1.02
% decomposition [1, 10]: nil
Start [1, 10]: 0.98
45° C. [1, 11]: 0.85
% decomposition [1, 11]: 17.00%
Start [1, 11]: 1.06

CS(=O)(=O)c1ccc(C(=O)C2C(=O)CCCC2=O)c([N+](=O)[O-])c1 [Mesotrione, 2-(4-methylsulphonyl-2-nitrobenzoyl)cyclohexane-1,3-dione]
Concentration of mesotrione in solution ([2]; Ammonium sulphate solution 100 g per litre): 625 ppm
Concentration of mesotrione in solution ([2]; Ammonium sulphate solution 200 g per litre): 504 ppm
Concentration of mesotrione in solution ([2]; Ammonium sulphate solution 300 g per litre): 391 ppm
Concentration of mesotrione in solution ([2]; Ammonium sulphate solution 400 g per litre): 271 ppm
Concentration of mesotrione in solution ([2]; Ammonium sulphate solution 500 g per litre): 263 ppm
Concentration of mesotrione in solution ([2]; Potassium glyphosate 100 g per litre): 1220 ppm
Concentration of mesotrione in solution ([2]; Potassium glyphosate 200 g per litre): 700 ppm
Concentration of mesotrione in solution ([2]; Potassium glyphosate 300 g per litre): 480 ppm
Concentration of mesotrione in solution ([2]; Potassium glyphosate 360 g per litre): 290 ppm
Concentration of mesotrione in solution ([2]; Potassium glyphosate 400 g per litre): 210 ppm
Concentration of mesotrione in solution ([2]; Potassium glyphosate 500 g per litre): 180 ppm
Concentration of mesotrione in solution ([2]; Potassium glyphosate 600 g per litre): 170 ppm
Concentration of mesotrione in solution ([2]; Potassium glyphosate 640 g per litre): 160 ppm
Concentration of mesotrione in solution ([2]; Sodium Chloride 50 g per litre): 605 ppm
Concentration of mesotrione in solution ([2]; Sodium Chloride 105 g per litre): 549 ppm
Concentration of mesotrione in solution ([2]; Sodium Chloride 165 g per litre): 510 ppm
Concentration of mesotrione in solution ([2]; Sodium Chloride 230 g per litre): 479 ppm
Concentration of mesotrione in solution ([2]; Sodium Chloride 300 g per litre): 443 ppm
Concentration of mesotrione in solution ([2]; electrolyte: None): 4700 ppm
45° C. [1, 4]: 0.96
% decomposition [1, 4]: 9.43%
Start [1, 4]: 1.06
45° C. [1, 5]: 0.93
% decomposition [1, 5]: 13.08%
Start [1, 5]: 1.07
45° C. [1, 6]: 0.86
% decomposition [1, 6]: 21.10%
Start [1, 6]: 1.09
45° C. [1, 12]: 0.86
% decomposition [1, 12]: 18.1%
Start [1, 12]: 1.05
45° C. [1, 13]: 0.80
% decomposition [1, 13]: 14.9%
Start [1, 13]: 0.94
45° C. [1, 7]: 0.96
% decomposition [1, 7]: 12.73%
Start [1, 7]: 1.10
45° C. [1, 8]: 0.98
% decomposition [1, 8]: 12.50%
Start [1, 8]: 1.12
45° C. [1, 9]: 0.90
% decomposition [1, 9]: 18.18%
Start [1, 9]: 1.10
45° C. [1, 10]: 0.96
% decomposition [1, 10]: 10.28%
Start [1, 10]: 1.07
45° C. [1, 14]: 0.83
% decomposition [1, 14]: 34.65%
Start [1, 14]: 1.27
solubility ([3]; pH 4.8, 20° C.): 2.2 mg/mL (≈ 6.48 mM)
solubility ([3]; pH 6.9, 20° C.): 15 mg/mL (≈ 44.2 mM)
solubility ([3]; pH 9, 20° C.): 22 mg/mL (≈ 64.8 mM)
